Publication PMC7765952, “N-(Hydroxyalkyl) Derivatives of tris(1H-indol-3-yl)methylium Salts as Promising Antibacterial Agents: Synthesis and Biological Evaluation” (Pharmaceuticals, 2020)
Values after ≈ are worked out from the molar mass of the structure shown. Read-outs that look alike come from different tables or passages of the source.

Experiments:
[1] = tested on: E. coli ATCC 25922; test: MIC by microdilution, E. coli ATCC 25922; type: cell-based, Escherichia coli
Description: (§1) Compounds were tested against Gram-positive and Gram-negative bacteria, including sensitive or drug resistant strains from American Type Culture Collection (ATCC), as well as resistant clinical isolates from the culture collection of the Laboratory for Control of Hospital Infections (Sechenov University, Moscow, Russia). Collection cultures of Gram-positive bacteria: Staphylococcus aureus ATCC 25923, Staphylococcus aureus ATCC 3798, Staphylococcus aureus ATCC 700,699 and clinical isolates of Gram-positive bacteria: Staphylococcus aureus 5, Staphylococcus aureus 10, Staphylococcus aureus 100 KS, Staphylococcus epidermidis 533, Enterococcus faecium 569 and collection cultures of Gram-negative bacteria: Escherichia coli ATCC 25922, Klebsiella pneumoniae ATCC 13883, Salmonella cholerasuis ATCC 14,028 were used.
(§2) For the cultivation of the strains, various nutrient media were used: Trypticase Soy Agar BBL for Staphylococcus sp., E. coli, K. pneumoniae, S. cholerasuis and Columbia Agar Base BBL for the cultivation of Enterococcus sp. Cultures grown on appropriate nutrient media at 35 °C for 1 day were used to set up experiments. For determination of the antibacterial action Mueller-Hinton (Acumedia, Baltimore, MD, USA) liquid medium was used. The minimum inhibitory concentrations (MIC) were determined by the microdilution method in 96 well sterile plates in a cation-adjusted Müller-Hinton medium in accordance with the requirements of the Institute of Clinical and Laboratory Standards (CLSI/NCCLS). MIC was defined as the minimum drug concentration that completely prevents the growth of the test organism.

[2] = tested on: S. aureus ATCC 3798; test: MIC by microdilution, S. aureus ATCC 3798; type: cell-based; settings: Staphylococcus aureus, ATCC3798
Description: as §1, §2

[3] = tested on: S. aureus ATCC 700699; test: MIC by microdilution, S. aureus ATCC 700699; type: cell-based, Staphylococcus aureus
Description: as §1, §2

[4] = tested on: S. aureus ATCC 25923; test: MIC by microdilution, S. aureus ATCC 25923; type: cell-based; settings: Staphylococcus aureus, ATCC25923
Description: as §1, §2

[5] = tested on: K. pneumoniae ATCC 13883; test: MIC by microdilution, K. pneumoniae ATCC 13883; type: cell-based; settings: Klebsiella pneumoniae, ATCC13883
Description: as §1, §2

[6] = tested on: E. faecium 569; test: MIC by microdilution, E. faecium 569; type: cell-based, Enterococcus faecium
Description: as §1, §2

[7] = Determination of lipophilicity, LogPow by HPLC method; type: physicochemical; settings: experimental, pH 7.4
Excerpt: We used the partition coefficient as an indicator of lipophilicity. The partition coefficient (P) is defined as the ratio of the equilibrium solute concentrations in a two-phase system of immiscible solvents. The most common in practice is the octanol-water (Pow) system. The partition coefficient is usually represented as a decimal logarithm (LogPow). It can be measured in several ways. A most advanced, accurate, and less time-consuming is the HPLC method for determining Pow using high-performance liquid chromatography. HPLC is performed on an analytical column with a solid phase containing long hydrocarbon chains chemically bound to silica gel. The retention time on such a column (Rt) is directly related to the partition coefficient Pow. The most informative in our case was the partition coefficient at a physiological pH value of 7.4. It was at this pH that the main biological experiments with the studied substances were carried out, namely tests of antimicrobial activity and cytotoxicity. HPLC was performed on a Shimadzu LC-20AD system using Kromasil-100-5-C18 (Akzo-Nobel) column, 4.6 × 250 mm, 20 °C temperature, UV detection, mobile phase A—0.2% HCOONH4), mobile phase B-MeCN, (pH 7.4), fl-1 mL/min., loop 20 mkl. After calibration using substances with a known LogPow, it is possible to recalculate Rt to LogPow. For calibration, we used aniline (LogPow 0.9), p-chloroaniline (LogPow 1.8), diphenylamine (LogPow 3.4), triphenylamine (LogPow 5.7).

[8] = tested on: S. epidermidis 533; test: MIC by microdilution, S. epidermidis 533; type: cell-based; settings: Staphylococcus epidermidis
Description: as §1, §2

[9] = tested on: S. cholerasuis ATCC 14028; test: MIC by microdilution, S. cholerasuis ATCC 14028; type: cell-based; settings: Salmonella, ATCC14028
Description: as §1, §2

[10] = tested on: S. aureus 5; test: MIC by microdilution, S. aureus 5; type: cell-based; settings: Staphylococcus aureus
Description: as §1, §2

[11] = tested on: P. aeruginosa ATCC 27853; test: MIC by microdilution, P. aeruginosa ATCC 27853; type: cell-based; settings: Pseudomonas aeruginosa, ATCC27853
Description: as §2

[12] = tested on: S. aureus 10; test: MIC by microdilution, S. aureus 10; type: cell-based; settings: Staphylococcus aureus
Description: as §1, §2

[13] = tested on: S. aureus 100 KC; test: MIC by microdilution, S. aureus 100 KC; type: cell-based; settings: Staphylococcus aureus
Description: as §1, §2

[14] = tested on: Gram-positive and Gram-negative bacteria; test: Antibacterial activity in vitro, strain panel in general; type: cell-based; settings: general statement over the strain panel
Description: as §1, §2

[15] = substances with a known LogPow used for HPLC calibration; cited from earlier work
[16] = Escherichia coli, ATCC25922, E. coli ATCC 25922, read-out: MIC
[17] = S. aureus ATCC 3798, multiresistant incl. ciprofloxacin, levofloxacin, read-out: MIC
[18] = Staphylococcus aureus, ATCC700699, S. aureus ATCC 700699, resistant to levofloxacin, read-out: MIC
[19] = S. aureus ATCC 25923, sensitive to all antibiotics, read-out: MIC
[20] = K. pneumoniae ATCC 13883, read-out: MIC
[21] = Enterococcus faecium, E. faecium 569, resistant to cefuroxime, clindamycin, gentamycin, vancomycin, doxycycline, read-out: MIC
[22] = S. epidermidis 533, resistant to gentamicin, read-out: MIC
[23] = S. cholerasuis ATCC 14028, read-out: MIC
[24] = S. aureus 5, methicillin resistant (MRSA) clinical isolate, read-out: MIC
[25] = P. aeruginosa ATCC 27853, read-out: MIC
[26] = clinical isolate S. aureus 10, sensitive to all antibiotics, read-out: MIC
[27] = S. aureus 100 KC, methicillin resistant (MRSA) clinical isolate, read-out: MIC
[28] = S. aureus ATCC 700699, resistant to levofloxacin

MIC [1, 16] [µg/mL]	MIC [2, 17] [µg/mL]	MIC [3, 18] [µg/mL]	MIC [4, 19] [µg/mL]	MIC [5, 20] [µg/mL]	MIC [6, 21] [µg/mL]	LogPow [7]	MIC [8, 22] [µg/mL]	MIC [10, 24] [µg/mL]	MIC [11, 25] [µg/mL]	MIC [12, 26] [µg/mL]	MIC [13, 27] [µg/mL]	SMILES	MIC [9, 23] [µg/mL]	LogPow of calibration substances [15]	also measured
16	32	32	32	> 64	> 64	1.15	32	64	> 64	16	64	OCCn1cc([C+](c2cn(CCO)c3ccccc23)c2cn(CCO)c3ccccc23)c2ccccc21.[Cl-] [8a, tris(1-(2-Hydroxyethyl)-1H-indol-3-yl)methylium chloride]	> 64		
> 64	16	> 64	32	> 64	32	1.2	32	16	> 64	8	16	OCCCn1cc([C+](c2cn(CCCO)c3ccccc23)c2cn(CCCO)c3ccccc23)c2ccccc21.[Cl-] [8b, tris(1-(3-Hydroxypropyl)-1H-indol-3-yl)methylium chloride]	> 64		
32	16	8	16	8	> 64	2.9	16	8	> 64	8	16	OCCCCn1cc([C+](c2cn(CCCCO)c3ccccc23)c2cn(CCCCO)c3ccccc23)c2ccccc21.[Cl-] [8c, tris(1-(4-Hydroxybutyl)-1H-indol-3-yl)methylium chloride]	> 64		
												CCN(CC)c1ccc(C(=C2C=CC(=[N+](CC)CC)C=C2)c2ccccc2)cc1 [BG, brilliant green, reference compound]			MIC ([1]; Escherichia coli, ATCC25922): 4 µg/mL; MIC [2]: 0.06 µg/mL; MIC ([3]; Staphylococcus aureus, ATCC700699): 1 µg/mL; MIC [4]: 0.06 µg/mL; MIC [5]: 8 µg/mL; MIC ([6]; Enterococcus faecium, 569): 0.25 µg/mL; MIC [8]; 533: 0.06 µg/mL; MIC [9]: 16 µg/mL; MIC ([10]; MRSA): 0.06 µg/mL; MIC [11]: > 64 µg/mL; MIC [12]; 10: 0.13 µg/mL; MIC ([13]; MRSA): 0.06 µg/mL
0.06 (≈ 0.166 µM)	32 (≈ 88.6 µM)	16 (≈ 44.3 µM)	0.25 (≈ 0.692 µM)	0.25 (≈ 0.692 µM)	1 (≈ 2.77 µM)		0.5 (≈ 1.38 µM)	0.25 (≈ 0.692 µM)	1 (≈ 2.77 µM)	0.13 (≈ 0.36 µM)	32 (≈ 88.6 µM)	C[C@H]1COc2c(N3CCN(C)CC3)c(F)cc3c(=O)c(C(=O)O)cn1c23 [Lf, levofloxacin, reference compound]	0.13 (≈ 0.36 µM)		
												Nc1ccccc1 [aniline]		0.9	
												c1ccc(Nc2ccccc2)cc1 [diphenylamine]		3.4	
												Nc1ccc(Cl)cc1 [p-chloroaniline]		1.8	
												c1ccc(N(c2ccccc2)c2ccccc2)cc1 [triphenylamine]		5.7	

SMILES	MIC [1, 16] [µg/mL]	MIC [2, 17] [µg/mL]	MIC [3, 18] [µg/mL]	MIC [4, 19] [µg/mL]	MIC [5, 20] [µg/mL]	MIC [6, 21] [µg/mL]	LogPow [7]	MIC [8, 22] [µg/mL]	MIC [10, 24] [µg/mL]	MIC [11, 25] [µg/mL]	MIC [12, 26] [µg/mL]	MIC [13, 27] [µg/mL]	MIC [9, 23] [µg/mL]	LogPow of calibration substances [15]	also measured
OCCCCCn1cc([C+](c2cn(CCCCCO)c3ccccc23)c2cn(CCCCCO)c3ccccc23)c2ccccc21.[Cl-] [8d, tris(1-(5-Hydroxypentyl)-1H-indol-3-yl)methylium chloride]	8	2	2	2	2	8	4	1	4	> 64	1	2	> 64		MIC ([1]; E. coli ATCC 25922): moderate level of activity; MIC [3, 28]: active; MIC (antibacterial activity, strains not specified) [14]: highly active against Gram-positive bacteria
OCCCCCCn1cc([C+](c2cn(CCCCCCO)c3ccccc23)c2cn(CCCCCCO)c3ccccc23)c2ccccc21.[Cl-] [8e, tris(1-(6-hydroxyhexyl)-1H-indol-3-yl)methylium chloride]	8	0.5	0.5	0.5	8	> 64	5.4	0.5	0.5	> 64	0.5	0.5	> 64		MIC ([1]; E. coli ATCC 25922): moderate level of activity; MIC [3, 28]: active; MIC (antibacterial activity, strains not specified) [14]: highly active against Gram-positive bacteria; MIC ([14]; read-out: MIC (antibacterial activity, strains not specified)): 0.5 µg/mL; MIC ([6]; E. faecium 569, resistant to cefuroxime, clindamycin, gentamycin, vancomycin, doxycycline): >64 µg/mL
